Test results published in patent publication EP4793267A1, “CARBONATE CONTAINING LIPID COMPOUNDS AND COMPOSITIONS FOR INTRACELLULAR DELIVERY OF THERAPEUTIC AGENTS” (ModernaTX, Inc., priority 2019, dated 2021).

Legend:
[1] = tested on: hepatocyte protein expression (hEPO); assay: Expression of hEPO induced by LNPs comprising the lipid and hEPO mRNA in mice; assay type: in vivo; settings: LNP with DSPC, cholesterol, PEG-1, mRNA encoding hEPO, CD-1 mice; for hEPO AUC: intravenous; for Mean 6 hr hEPO Concentration (mIU/mL): serum, 6 h after intravenous injection
Procedure: (§1) To assess potency of expression and metabolic stability of lipids of the disclosure the hepatocyte protein expression (hEPO) following administration of a nanoparticle of the disclosure (e.g., a loaded LNP) to mice was measured.
(§2) Lipid nanoparticles (LNPs) including DSPC as a phospholipid, cholesterol as a structural lipid, PEG-1 as a PEG lipid, a compound according to Formula (A), (A1), (A2), (A3), (B), (1), (I'), (I-X), (I-Y), (I-Ya) (IA), (Ia), (Ib), (Ic), (Id), (Ie), (If), (Ig), (II), (IIa), or (IIb), and an mRNA encoding hEPO were intravenously administered to CD-1 mice. The concentration of hEPO in serum was tested at 6 h after injection. […] Table 2. Expression of hEPO induced by administration of LNPs comprising lipids of the disclosure in mice and residual lipid levels in the liver.

[2] = Residual parent lipid levels in the liver after LNP administration to mice; assay type: in vivo; settings: 24 h after intravenous LNP administration, CD-1 mice
Procedure: as §1, §2

**Q.** Which results are given for CCCCCCCCCOC(=O)OCCCCCCN(CCO)CCCCCCCC(=O)OC(CCCCCCCC)CCCCCCCC [Compound 6, Heptadecan-9-yl 8-((2-hydroxyethyl)(6-(((nonyloxy)carbonyl)oxy)hexyl)amino)octanoate]?
**A.** hEPO AUC [1]: 8.19E+06; Mean 6 hr hEPO Concentration (mIU/mL) [1]: 509181.4 mIU/mL; Parent Lipid Remaining (nmol/g liver tissue) at 24 h [2]: 3 ± 1 nmol/g liver tissue

**Q.** With CCCCCCCCC(CCCCCCCC)OC(=O)CCCCCCCN(CCO)CCCCCCOC(=O)OCCC(CCCCC)CCCCC [Compound 64, Heptadecan-9-yl 8-((2-hydroxyethyl)(6-((((3-pentyloctyl)oxy)carbonyl)oxy)hexyl)amino)octanoate] as the molecule, how does the “hEPO AUC” value [1] read?
**A.** 1.11E+07

**Q.** What about the “Mean 6 hr hEPO Concentration (mIU/mL)” value [1] of the same molecule?
**A.** 735556.2 mIU/mL

**Q.** What about the “Parent Lipid Remaining (nmol/g liver tissue) at 24 h” value (“Parent Lipid Remaining” below) [2] of the same molecule?
**A.** 72 ± 17 nmol/g liver tissue

**Q.** For CCCCCCCCC(CCCCCCCC)OC(=O)CCCCCCCN(CCCCCCOC(=O)OCCC(CCCCCC)CCCCCC)CCCNc1c(NC)c(=O)c1=O [Compound 65, Heptadecan-9-yl 8-((6-((((3-hexylnonyl)oxy)carbonyl)oxy)hexyl)(3-((2-(methylamino)-3,4-dioxocyclobut-1-en-1-yl)amino)propyl)amino)octanoate], which “hEPO AUC” value [1] is on record?
**A.** 7.76E+06

**Q.** And the “Mean 6 hr hEPO Concentration (mIU/mL)” value [1]?
**A.** 521341.6 mIU/mL

**Q.** What about the “Parent Lipid Remaining” value [2] of the same molecule?
**A.** 364 ± 58 nmol/g liver tissue

**Q.** Which “hEPO AUC” value [1] does the source give for CCCCCCCCC(CCCCCCCC)OC(=O)CCCCCCCN(CCO)CCCCCCOC(=O)OCCC(CCCCCC)CCCCCC [Compound 66, Heptadecan-9-yl 8-((6-((((3-hexylnonyl)oxy)carbonyl)oxy)hexyl)(2-hydroxyethyl)amino)octanoate] here?
**A.** 9.77E+06

**Q.** And the “Mean 6 hr hEPO Concentration (mIU/mL)” value [1]?
**A.** 641899.1 mIU/mL

**Q.** And the “Parent Lipid Remaining” value [2]?
**A.** 67 ± 8 nmol/g liver tissue

**Q.** Which “hEPO AUC” value [1] does the source give for CCCCCCCCC(CCCCCCCC)OC(=O)CCCCCCCN(CCCCCCOC(=O)OCCC(CCCCC)CCCCC)CCCNc1c(NC)c(=O)c1=O [Compound 67, Heptadecan-9-yl 8-((3-((2-(methylamino)-3,4-dioxocyclobut-1-en-1-yl)amino)propyl)(6-((((3-pentyloctyl)oxy)carbonyl)oxy)hexyl)amino)octanoate] here?
**A.** 1.31E+07

**Q.** And the “Mean 6 hr hEPO Concentration (mIU/mL)” value [1]?
**A.** 891982.2 mIU/mL

**Q.** And the “Parent Lipid Remaining” value [2]?
**A.** 94 ± 15 nmol/g liver tissue
